Measured values as given in patent US7018981B2, “Cyclic motilin receptor antagonists” (Chugai Seiyaku Kabushiki Kaisha, priority 2000, dated 2006).
Read-outs that look alike come from different tables or passages of the source. Each block holds one molecule with its values, some of them ahead of it. Where a SMILES comes first, the peptide text is derived from it. Bridges are numbered along the chain shown (N, C = ends). [ ]: non-standard residue; d: D form. Tyr(3-tBu) = CC(C)(C)c1cc(C[CH](N)C(=O)O)ccc1O; βAla = NCCC(=O)O

Legend:
[1] = amide bond, BOP, 25.0 °C
[2] = amide bond, 25.0 °C
[3] = target: T1, motilin receptors (Oryctolagus cuniculus, UniProt G1T803); test: Motilin receptor binding test (125I motilin, rabbit duodenum protein solution); settings: concentration inhibiting 50% of specific binding of 25 pM 125I motilin; rabbit duodenum homogenate, 2 hours at 25° C.
T1 construct: A protein solution was prepared by homogenizing the duodenum isolated from a killed rabbit; from tissue; host or cells: rabbit duodenum, mucosa stripped, homogenate
T1 sequence (G1T803 1-400): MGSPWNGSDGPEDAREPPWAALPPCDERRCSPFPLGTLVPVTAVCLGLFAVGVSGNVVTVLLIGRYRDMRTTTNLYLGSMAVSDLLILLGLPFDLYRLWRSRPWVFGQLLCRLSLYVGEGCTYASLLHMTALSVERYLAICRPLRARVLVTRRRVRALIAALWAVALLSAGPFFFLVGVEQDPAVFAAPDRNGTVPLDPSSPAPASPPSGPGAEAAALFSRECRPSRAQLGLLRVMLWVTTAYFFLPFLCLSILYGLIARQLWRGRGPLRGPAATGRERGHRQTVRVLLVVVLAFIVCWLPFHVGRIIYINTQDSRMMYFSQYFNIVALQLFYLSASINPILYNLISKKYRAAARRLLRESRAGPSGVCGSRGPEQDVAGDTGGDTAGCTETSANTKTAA
Procedure: Motilin receptor binding activities of compounds of the present invention were tested as follows [Vantrappen et al., Regul.
A protein solution was prepared by homogenizing the duodenum isolated from a killed rabbit in 50 mM Tris after stripping the mucosa. […] The difference between the radioactivity of the protein solution incubated alone and the radioactivity of the protein solution incubated with a large excess of motilin (10^−7 M) was recorded as specific binding of motilin to motilin receptors.

[4] = system: motilin-induced contraction of a sample of the longitudinal muscle of the duodenum; test: Contraction inhibition test: motilin-induced contraction of rabbit longitudinal duodenal muscle; format: cell-based; settings: Oryctolagus cuniculus; concentration-dependent contraction induced by motilin; rabbit duodenal specimen in Krebs solution at 28° C.; read-out: Contraction inhibition test pA2 (converted)
Procedure: The effect of compounds of the present invention on motilin-induced contraction of a sample of the longitudinal muscle of the duodenum extracted from a rabbit was tested as follows.
A duodenal specimen (5×15 mm) extracted from a killed rabbit was suspended in the direction of the longitudinal muscle in an incubator at 28° C. filled with Krebs solution (10 ml organ bath). A mixed gas (95% O2, 5% CO2) was continuously passed through the Krebs solution and the contraction of the duodenal specimen was isotonically recorded (under a load of 1 g) via an isotonic transducer (ME-3407, ME Commercial, Tokyo, Japan). The extent of contraction of the duodenal specimen was expressed as a percentage to the contraction induced by acetylcholine at a concentration of 10^−4 M.
The effect of the compounds synthesized in Examples 1–8 and 10 on the concentration-dependent contraction induced by motilin added into the incubator was determined to calculate pA2 (see “Drug receptors” edited by Takayanagi, published by Nanzando). As a comparative example, the results of the compound of formula (5) are also shown.

[5] = 14-membered ring, BOP, DMF/pyridine 1:1, 9.9 mM, 2 steps

Molecule: CC(=O)N1CCCC[C@H](N(C)C(=O)[C@H](Cc2ccc(F)cc2)NC(=O)OC(C)(C)C)C(=O)N[C@@H](Cc2ccc(O)c(C(C)(C)C)c2)C(=O)NCCC1
ring closure, yield of all isomers ([1]; from CC(=O)N(CCCN)CCCC[C@@H](C(=O)N[C@@H](Cc1ccc(O)c(C(C)(C)C)c1)C(=O)O)N(C)C(=O)[C@H](Cc1ccc(F)cc1)NC(=O)OC(C)(C)C, DMF, 9.87 mM, 18.0 h): 55%

Molecule: CC(C)(C)c1cc(C[C@@H]2NC(=O)C(N)CCCCNC(=O)CCNC2=O)ccc1O (stereo partly drawn)
ring closure, isolated yield ([2]; from Z-Lys-Tyr(3-tBu)-bAla-OH?, 14-membered ring, BOP/pyridine, MeCN/pyridine 1:1, 10.2 mM, 3 steps): 90%

Molecule: CC(C)(C)c1cc(C[C@@H]2NC(=O)[C@@H](N)CCCCNC(=O)CCNC2=O)ccc1O
ring closure, yield of all isomers ([1]; from CC(C)(C)OC(=O)CCNC(=O)[C@H](Cc1ccc(O)c(C(C)(C)C)c1)NC(=O)[C@H](CCCCNC(=O)OC(C)(C)C)NC(=O)OCc1ccccc1, acetonitrile, 10.2 mM, 21.0 h, 3 steps): 90%

Molecule: CN(C(=O)[C@H](Cc1ccc(F)cc1)NC(=O)OC(C)(C)C)[C@H]1CCCCNC(=O)CCCNC(=O)[C@H](Cc2ccc(O)c(C(C)(C)C)c2)NC1=O
ring closure, yield of all isomers ([1]; from CN(C(=O)[C@H](Cc1ccc(F)cc1)NC(=O)OC(C)(C)C)[C@@H](CCCCN)C(=O)N[C@@H](Cc1ccc(O)c(C(C)(C)C)c1)C(=O)NCCCC(=O)O, DMF, 10.1 mM, 16.0 h): 82%

Molecule: CN(C(=O)[C@H](Cc1ccc(F)cc1)NC(=O)OC(C)(C)C)[C@H]1CCCCNC(=O)CCNC(=O)[C@H](Cc2ccc(O)c(C(C)(C)C)c2)N(C)C1=O
ring closure, yield of all isomers ([1]; from CN(C(=O)[C@H](Cc1ccc(F)cc1)NC(=O)OC(C)(C)C)[C@@H](CCCCN)C(=O)N(C)[C@@H](Cc1ccc(O)c(C(C)(C)C)c1)C(=O)NCCC(=O)O, DMF, 10.0 mM, 26.0 h, 2 steps): 36%

Molecule: CN(C(=O)[C@H](Cc1ccc(F)cc1)NC(=O)OC(C)(C)C)[C@H]1CCCCNC(=O)CCNC(=O)[C@H](Cc2ccc(O)c(C(C)(C)C)c2)NC1=O
ring closure, yield of all isomers ([1]; from CN(C(=O)[C@H](Cc1ccc(F)cc1)NC(=O)OC(C)(C)C)[C@@H](CCCCN)C(=O)N[C@@H](Cc1ccc(O)c(C(C)(C)C)c1)C(=O)NCCC(=O)O, DMF, 10.1 mM, 18.0 h): 69%

Molecule: CN(C(=O)[C@H](Cc1ccc(F)cc1)NC(=O)OC(C)(C)C)[C@H]1CCCCNC(=O)CNC(=O)[C@H](Cc2ccc(O)c(C(C)(C)C)c2)NC1=O
ring closure, yield of all isomers ([1]; from CN(C(=O)[C@H](Cc1ccc(F)cc1)NC(=O)OC(C)(C)C)[C@@H](CCCCN)C(=O)N[C@@H](Cc1ccc(O)c(C(C)(C)C)c1)C(=O)NCC(=O)O, DMF, 10.75 mM, 23.0 h, 2 steps): 60%

Molecule: CN(C(=O)[C@H](Cc1ccccc1)NC(=O)OCc1ccccc1)[C@H]1CCCCNC(=O)CCNC(=O)[C@H](Cc2ccc(O)c(C(C)(C)C)c2)NC1=O
ring closure, yield of all isomers ([1]; from CN(C(=O)[C@H](Cc1ccccc1)NC(=O)OCc1ccccc1)[C@@H](CCCCN)C(=O)N[C@@H](Cc1ccc(O)c(C(C)(C)C)c1)C(=O)NCCC(=O)O, DMF, 9.91 mM, 2 steps): 48%

Molecule: CN1CCC(=O)NCCCC[C@H](N(C)C(=O)[C@H](Cc2ccc(F)cc2)NC(=O)OC(C)(C)C)C(=O)N[C@@H](Cc2ccc(O)c(C(C)(C)C)c2)C1=O
ring closure, yield of all isomers ([1]; from CN(CCC(=O)O)C(=O)[C@H](Cc1ccc(O)c(C(C)(C)C)c1)NC(=O)[C@H](CCCCN)N(C)C(=O)[C@H](Cc1ccc(F)cc1)NC(=O)OC(C)(C)C, DMF, 10.3 mM, 16.0 h): 60%

Molecule: CN1CCCC[C@H](N(C)C(=O)[C@H](Cc2ccc(F)cc2)NC(=O)OC(C)(C)C)C(=O)N[C@@H](Cc2ccc(O)c(C(C)(C)C)c2)C(=O)NCCC1=O
ring closure, yield of all isomers ([1]; from CNCCCC[C@@H](C(=O)N[C@@H](Cc1ccc(O)c(C(C)(C)C)c1)C(=O)NCCC(=O)O)N(C)C(=O)[C@H](Cc1ccc(F)cc1)NC(=O)OC(C)(C)C, DMF, 10.5 mM, 16.0 h): 36%

Molecule: CN1CCC[C@H](N(C)C(=O)[C@H](Cc2ccc(F)cc2)NC(=O)OC(C)(C)C)C(=O)N[C@@H](Cc2ccc(O)c(C(C)(C)C)c2)C(=O)NCCCC1=O
ring closure, yield of all isomers ([1]; from CNCCC[C@@H](C(=O)N[C@@H](Cc1ccc(O)c(C(C)(C)C)c1)C(=O)NCCCC(=O)O)N(C)C(=O)[C@H](Cc1ccc(F)cc1)NC(=O)OC(C)(C)C, DMF, 9.93 mM, 12.0 h, 2 steps): 60%

Molecule: 2S-(2S,13S))-N-(8-acetyl-2-(3-tert-butyl-4-hydroxyphenylmethyl)-3,14-dioxo-1,4,8-triazacyclotetradec-13-yl)-2-tert-butoxycarbonylamino-3-(4-fluorophenyl)-N-methylpropionamide
ring closure, isolated yield ([2]; 14-membered ring, BOP/pyridine, DMF/pyridine 1:1, 9.9 mM): 55%

IC50 [3]: 10 nM
Molecule: CC(C)(C)c1cc(CC2NC(=O)C(NC(=O)C(N)Cc3ccccc3)CCCCNC(=O)CCNC2=O)ccc1O (stereo not drawn) [Comparative example, reference compound] (H-FK[Tyr(3-tBu)][βAla]; lactam 2-C; configuration not given here)
Kb [4]: 63.1 nM

IC50 [3]: 5.3 nM
Molecule: CN1CCC[C@H](N(C)C(=O)[C@@H](N)Cc2ccc(F)cc2)C(=O)N[C@@H](Cc2ccc(O)c(C(C)(C)C)c2)C(=O)NCCCC1=O [Example 9, (2S-(2S,13S))-2-amino-N-(2-(3-tert-butyl-4-hydroxyphenylmethyl)-9,N-dimethyl-1,4,9-triaza-3,8,14-trioxocyclotetradec-13-yl)-3-(4-fluorophenyl)propionamide]

Molecule: (2S-(2S,12S))-2-tert-butoxycarbonylamino-N-(2-(3-tert-butyl-4-hydroxyphenylmethyl)-1,4,8-triaza-3,7,13-trioxocyclotridec-12-yl)-3-(4-fluorophenyl)-N-methylpropionamide
ring closure, isolated yield ([2]; 13-membered ring, BOP/pyridine, DMF/pyridine 1:1, 10.75 mM, 2 steps): 60%

Molecule: (2S-(2S,13S))-2-(tert-butoxycarbonylamino)-N-(2-(3-tert-butyl-4-hydroxyphenylmethyl)-8-methyl-1,4, 8-triaza-3,7,14-trioxocyclotetradec-13-yl)-3-(4-fluorophenyl)-N-methylpropionamide
ring closure, isolated yield ([2]; 14-membered ring, BOP/pyridine, DMF/pyridine 1:1, 10.5 mM): 36%

Molecule: (2S-(2S,13S))-2-benzyloxycarbonylamino-N-(2-(3-tert-butyl-4-hydroxyphenylmethyl)-1,4,8-triaza-3,7,14-trioxocyclotetradec-13-yl)-3-phenyl-N-methylpropionamide
ring closure, isolated yield [2, 5]: 48%

Molecule: (2S-(2S,13S))-2-tert-butoxycarbonylamino-N-(2-(3-tert-butyl-4-hydroxyphenylmethyl)-1,4,8-triaza-3,7,14-trioxocyclotetradec-13-yl)-3-(4-fluorophenyl)-N-methylpropionamide
ring closure, isolated yield ([2]; 14-membered ring, BOP/pyridine, DMF/pyridine 1:1, 10.1 mM): 69%

Molecule: (2S-(2S,13S))-2-tert-butoxycarbonylamino-N-(2-(3-tert-butyl-4-hydroxyphenylmethyl)-1-methyl-1,4,8-triaza-3,7,14-trioxocyclotetradec-13-yl)-3-(4-fluorophenyl)-N-methylpropionamide
ring closure, isolated yield ([2]; 14-membered ring, BOP/pyridine, DMF/pyridine 1:1, 10.0 mM, 2 steps): 36%

Molecule: (2S-(2S,13S))-2-tert-butoxycarbonylamino-N-(2-(3-tert-butyl-4-hydroxyphenylmethyl)-4-methyl-1,4,8-triaza-3,7,14-trioxocyclotetradec-13-yl)-3-(4-fluorophenyl)-N-methylpropionamide
ring closure, isolated yield ([2]; 14-membered ring, BOP/pyridine, DMF/pyridine 1:1, 10.3 mM): 60%

Molecule: (2S-(2S,13S))-2-tert-butoxycarbonylamino-N-(2-(3-tert-butyl-4-hydroxyphenylmethyl)-9-methyl-1,4,9-triaza-3,8,14-trioxocyclotetradec-13-yl)-3-(4-fluorophenyl)-N-methylpropionamide
ring closure, isolated yield [2, 5]: 60%

Molecule: (2S-(2S,13S))-N-(8-acetyl-2-(3-tert-butyl-4-hydroxyphenylmethyl)-3,14-dioxo-1,4,8-triazacyclotetradec-13-yl)-2-tert-butoxycarbonylamino-3-(4-fluorophenyl)-N-methylpropionamide
ring closure, isolated yield ([2]; 14-membered ring, BOP, DMF/pyridine 1:1, 9.9 mM): 55%

Molecule: (2S-(2S,14S))-2-(tert-butoxycarbonylamino)-N-(2-(3-tert-butyl-4-hydroxyphenylmethyl)-1,4,9-triaza-3,8,15-trioxocyclopentadec-14-yl)-3-(4-fluorophenyl)-N-methylpropionamide
ring closure, isolated yield ([2]; 15-membered ring, BOP/pyridine, DMF/pyridine 1:1, 10.1 mM): 82%
